The record followed here is patent US5760230A, “4, 4'-bridged bis-2, 4-diaminoquinazolines” (Bayer Aktiengesellschaft, priority 1996, dated 1998).

The target in test [1] is apamine binding sites (bovine cerebral membrane, hippocampus). Briefly: Binding of ^125 I-apamine to bovine cerebral membrane. Particulars: 30 pM ^125 I-apamine, calf hippocampus membranes, pH 7.4, 60 min on ice. How it is done: The compounds according to the invention are ligands for apamine-sensitive potassium channels. This can be shown by studying the affinity for apamine binding sites, e.g. in bovine cerebral membranes.
1) Binding of ^125 I-apamine to bovine cerebral membrane
Calf brains were obtained from the local abattoir. The hippocampus was prepared on ice and a membrane suspension was made up by homogenization twice in buffer (100 mM Tris-HCl, KCl 5 mM, pH 7.4) and centrifugation at 43,000×g. In a total volume of 500 μl, the incubation mixture contained 200 μg of membrane protein, 30 pM ^125 I-apamine and test substances in the concentration range 1×10^-9 to 1×10^-4 M. The non-specific binding of ^125 I-apamine was determined in the presence of 1×10^-7 M unlabelled apamine.
After preincubation for 30 min at room temperature (test substances and membrane homogenate), the samples were placed on ice for 10 min before the radioligand was added. The main incubation time was 60 min on ice. When the reaction time had elapsed, an excess of ice-cooled incubation buffer was added to each sample and the mixture was filtered with suction through cellulose acetate/nitrate membrane filters. The amount of bound ^125 I-apamine was measured with a gamma counter.

The subject of test [2] is potassium channels (PC12 cells). Briefly: Non-radioactive Rb^+ efflux assay for the identification of potassium channel modulators in PC12 cells. Type of test: cell-based. Particulars: Rattus norvegicus, PC-12, 10 min, test concentration of 10 μM, 50 mM KCl stimulation. How it is done: 2) Non-radioactive Rb^+ efflux assay for the identification of potassium channel modulators
The potassium in PC12 cells is exchanged with rubidium, which is not present in the cells. This exchange is performed by incubating the cells over a period of 4 h in a physiological buffer containing 5.4 mM RbCl without KCl. This rubidium subsequently serves as a tracer for potassium.
The cells laden with Rb^+ in this way are washed three times and then stimulated by depolarization with 50 mM KCl to open potassium channels (10 min), causing Rb^+ to flow out of the cells into the supernatant according to the concentration gradient.
The rubidium contents in the cell supernatant and in the residual cells after they have been lysed with 1% Triton X-100 are then determined by means of atomic absorption spectroscopy. The relative proportion of rubidium in the cell supernatant (=Rb^+ efflux) is used as a measure of the potassium channel activity.
The effect of substances on the channel activity is measured by co-incubating, the test substance over the ten-minute stimulation period and determining its effect on the Rb^+ efflux in the manner described above.

As usually defined, the Ki is the dissociation constant of the complex between target and ligand, obtained from inhibition or displacement. A word on the inhibition: it is the drop in the measured response relative to a control, in per cent. Regarding `CCN(CC)c1nc(NCC2CCCC(CNc3nc(N(CC)CC)nc4ccccc34)C2)c2ccccc2n1` (mixture of isomers) [Example 1, 1,3-Bis-[(2-diethylamino-4-quinazolyl)-aminomethyl]-cyclohexane (cis/trans isomeric mixture)], in test [1], the Ki was found to be 160 nM. Also, the inhibition at 10 µM in test [2] worked out at 80%.
For `CCN(CC)c1nc(NCCCCCNc2nc(N(CC)CC)nc3ccccc23)c2ccccc2n1` [Example 2], the affinity in test [1] corresponds to a Ki of 8 nM.
For the compound `CCN(CC)c1nc(NCCCNc2nc(N(CC)CC)nc3ccccc23)c2ccccc2n1` [Example 3], the inhibition at 10 µM in test [2] is 81%.
